This passage reports IC50, Kd and Ki results from ChEMBL document CHEMBL4184186, “Targeting protein-protein interaction between MLL1 and reciprocal proteins for leukemia therapy” (Bioorg Med Chem, 2018).

Bounds are passed on as bounds.

The target in assay [1] is T1, Menin (Homo sapiens, UniProt O00255).
T1 sequence (O00255 whole entry): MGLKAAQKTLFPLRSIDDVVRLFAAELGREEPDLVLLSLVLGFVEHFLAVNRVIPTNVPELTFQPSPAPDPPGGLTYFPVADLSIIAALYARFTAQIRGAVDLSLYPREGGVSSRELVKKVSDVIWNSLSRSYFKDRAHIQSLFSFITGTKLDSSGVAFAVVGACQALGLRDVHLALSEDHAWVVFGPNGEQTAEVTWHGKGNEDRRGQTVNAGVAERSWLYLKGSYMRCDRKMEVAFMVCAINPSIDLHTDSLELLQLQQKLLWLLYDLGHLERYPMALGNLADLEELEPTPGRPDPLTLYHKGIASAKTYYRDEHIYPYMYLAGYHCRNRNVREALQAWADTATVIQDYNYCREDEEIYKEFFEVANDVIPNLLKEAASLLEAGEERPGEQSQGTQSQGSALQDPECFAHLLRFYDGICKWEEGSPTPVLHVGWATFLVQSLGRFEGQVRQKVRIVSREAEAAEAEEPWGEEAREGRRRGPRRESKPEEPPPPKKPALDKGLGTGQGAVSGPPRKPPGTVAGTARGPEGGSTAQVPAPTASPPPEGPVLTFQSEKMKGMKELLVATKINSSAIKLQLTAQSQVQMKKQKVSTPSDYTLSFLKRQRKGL
Kind of assay: Displacement of FITC-MBM1 from full length human menin measured after 2 hrs by fluorescence polarization assay. (In general: Fluorescence polarisation rises when a labelled molecule tumbles more slowly, as on binding a larger partner.)

For assay [2], the target named is T1, Menin. Kind of assay: Displacement of FITC-MBM1 from full length human menin measured after 1 hr by fluorescence polarization assay.
For assay [3], the target named is T1, Menin. Kind of assay: Binding affinity to menin (unknown origin) by isothermal titration calorimetry. On the technique in general: ITC needs no label: the signal is the heat of the interaction.
Assay [4] concerns the target Histone-lysine N-methyltransferase 2A (Homo sapiens, UniProt Q03164). Kind of assay: Inhibition of MLL1 binding to N-terminal His-tagged […] 23 deletion mutant (24 to 334 residues) (unknown origin) expressed in Escherichia coli Rosetta 2 (DE3) pLysS cells by fluorescence polarization assay.
The target in assay [5] is T1, Menin.
Description: Displacement of FITC-MBM1 from menin (unknown origin) measured after 1 hr by fluorescence polarization assay

Histone-lysine N-methyltransferase 2A, sequence (Q03164 1-2718 limits assumed, stated change not applied): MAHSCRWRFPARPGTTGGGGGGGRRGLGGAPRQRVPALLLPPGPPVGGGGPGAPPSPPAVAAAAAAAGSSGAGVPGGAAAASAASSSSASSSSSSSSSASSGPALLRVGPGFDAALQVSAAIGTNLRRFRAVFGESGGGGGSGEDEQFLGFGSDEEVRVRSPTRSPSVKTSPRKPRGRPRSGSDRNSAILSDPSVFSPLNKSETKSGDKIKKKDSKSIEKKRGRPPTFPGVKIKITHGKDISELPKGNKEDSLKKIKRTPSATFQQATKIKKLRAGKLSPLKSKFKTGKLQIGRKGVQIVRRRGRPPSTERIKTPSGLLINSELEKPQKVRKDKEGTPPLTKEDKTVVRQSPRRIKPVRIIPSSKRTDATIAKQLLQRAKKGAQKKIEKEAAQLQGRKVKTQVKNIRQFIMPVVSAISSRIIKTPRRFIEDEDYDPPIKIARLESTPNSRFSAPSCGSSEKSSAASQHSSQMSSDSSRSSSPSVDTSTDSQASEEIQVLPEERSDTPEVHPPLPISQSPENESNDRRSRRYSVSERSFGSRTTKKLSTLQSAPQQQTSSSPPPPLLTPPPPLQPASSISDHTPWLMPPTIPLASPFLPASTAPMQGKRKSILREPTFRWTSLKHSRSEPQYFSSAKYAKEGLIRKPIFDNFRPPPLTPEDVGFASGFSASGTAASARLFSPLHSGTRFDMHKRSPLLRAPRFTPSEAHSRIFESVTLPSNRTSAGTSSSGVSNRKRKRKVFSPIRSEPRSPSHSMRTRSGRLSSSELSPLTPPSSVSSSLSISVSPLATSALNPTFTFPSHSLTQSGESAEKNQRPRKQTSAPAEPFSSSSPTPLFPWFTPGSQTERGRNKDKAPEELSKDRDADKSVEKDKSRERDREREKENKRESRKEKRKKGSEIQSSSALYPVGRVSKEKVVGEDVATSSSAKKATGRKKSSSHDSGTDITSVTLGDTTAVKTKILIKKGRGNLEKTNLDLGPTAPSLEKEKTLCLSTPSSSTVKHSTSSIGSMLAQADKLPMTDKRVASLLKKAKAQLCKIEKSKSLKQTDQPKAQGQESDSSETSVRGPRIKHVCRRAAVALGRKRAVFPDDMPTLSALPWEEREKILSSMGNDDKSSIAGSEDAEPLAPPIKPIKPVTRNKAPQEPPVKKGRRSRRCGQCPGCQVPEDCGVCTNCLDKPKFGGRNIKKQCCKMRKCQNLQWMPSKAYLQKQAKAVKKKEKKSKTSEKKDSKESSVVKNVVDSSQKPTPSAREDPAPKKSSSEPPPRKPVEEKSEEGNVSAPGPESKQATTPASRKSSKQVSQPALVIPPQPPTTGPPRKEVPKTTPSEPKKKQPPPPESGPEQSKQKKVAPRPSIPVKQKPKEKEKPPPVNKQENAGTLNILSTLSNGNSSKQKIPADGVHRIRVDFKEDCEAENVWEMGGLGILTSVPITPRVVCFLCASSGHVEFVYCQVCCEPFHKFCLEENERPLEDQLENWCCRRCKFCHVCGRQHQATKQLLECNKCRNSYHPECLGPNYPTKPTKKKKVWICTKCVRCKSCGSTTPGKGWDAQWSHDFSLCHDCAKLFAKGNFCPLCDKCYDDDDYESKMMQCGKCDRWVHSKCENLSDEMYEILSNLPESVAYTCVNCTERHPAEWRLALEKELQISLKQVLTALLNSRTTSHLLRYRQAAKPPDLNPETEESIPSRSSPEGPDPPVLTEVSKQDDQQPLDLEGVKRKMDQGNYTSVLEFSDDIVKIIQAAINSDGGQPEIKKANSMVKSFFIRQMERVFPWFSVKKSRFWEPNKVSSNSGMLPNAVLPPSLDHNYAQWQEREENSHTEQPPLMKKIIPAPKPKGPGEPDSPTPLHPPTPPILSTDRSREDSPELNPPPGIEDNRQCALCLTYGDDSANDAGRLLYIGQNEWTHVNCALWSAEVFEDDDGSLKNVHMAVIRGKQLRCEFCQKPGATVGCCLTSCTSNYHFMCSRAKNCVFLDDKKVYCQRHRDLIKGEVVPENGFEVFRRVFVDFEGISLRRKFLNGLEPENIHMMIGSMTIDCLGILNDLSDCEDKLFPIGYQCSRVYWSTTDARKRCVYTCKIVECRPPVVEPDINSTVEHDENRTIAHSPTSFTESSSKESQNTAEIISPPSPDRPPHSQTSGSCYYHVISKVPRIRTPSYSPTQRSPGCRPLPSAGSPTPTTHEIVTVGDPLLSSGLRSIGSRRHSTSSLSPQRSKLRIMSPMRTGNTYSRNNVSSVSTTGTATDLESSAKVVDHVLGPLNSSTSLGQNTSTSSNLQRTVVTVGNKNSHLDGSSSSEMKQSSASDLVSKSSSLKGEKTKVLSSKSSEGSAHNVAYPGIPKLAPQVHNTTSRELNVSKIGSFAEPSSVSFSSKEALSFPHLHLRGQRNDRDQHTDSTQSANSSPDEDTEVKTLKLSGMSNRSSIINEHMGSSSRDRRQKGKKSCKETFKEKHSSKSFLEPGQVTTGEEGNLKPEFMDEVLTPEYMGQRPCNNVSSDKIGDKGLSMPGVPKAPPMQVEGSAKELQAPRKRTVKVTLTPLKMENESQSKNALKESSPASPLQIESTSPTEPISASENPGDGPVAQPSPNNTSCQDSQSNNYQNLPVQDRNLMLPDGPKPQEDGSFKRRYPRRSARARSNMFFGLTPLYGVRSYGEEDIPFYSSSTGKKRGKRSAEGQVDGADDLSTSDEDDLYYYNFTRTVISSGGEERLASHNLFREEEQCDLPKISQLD
Histone-lysine N-methyltransferase 2A, sequence (Q03164 2719-3969 limits assumed, stated change not applied): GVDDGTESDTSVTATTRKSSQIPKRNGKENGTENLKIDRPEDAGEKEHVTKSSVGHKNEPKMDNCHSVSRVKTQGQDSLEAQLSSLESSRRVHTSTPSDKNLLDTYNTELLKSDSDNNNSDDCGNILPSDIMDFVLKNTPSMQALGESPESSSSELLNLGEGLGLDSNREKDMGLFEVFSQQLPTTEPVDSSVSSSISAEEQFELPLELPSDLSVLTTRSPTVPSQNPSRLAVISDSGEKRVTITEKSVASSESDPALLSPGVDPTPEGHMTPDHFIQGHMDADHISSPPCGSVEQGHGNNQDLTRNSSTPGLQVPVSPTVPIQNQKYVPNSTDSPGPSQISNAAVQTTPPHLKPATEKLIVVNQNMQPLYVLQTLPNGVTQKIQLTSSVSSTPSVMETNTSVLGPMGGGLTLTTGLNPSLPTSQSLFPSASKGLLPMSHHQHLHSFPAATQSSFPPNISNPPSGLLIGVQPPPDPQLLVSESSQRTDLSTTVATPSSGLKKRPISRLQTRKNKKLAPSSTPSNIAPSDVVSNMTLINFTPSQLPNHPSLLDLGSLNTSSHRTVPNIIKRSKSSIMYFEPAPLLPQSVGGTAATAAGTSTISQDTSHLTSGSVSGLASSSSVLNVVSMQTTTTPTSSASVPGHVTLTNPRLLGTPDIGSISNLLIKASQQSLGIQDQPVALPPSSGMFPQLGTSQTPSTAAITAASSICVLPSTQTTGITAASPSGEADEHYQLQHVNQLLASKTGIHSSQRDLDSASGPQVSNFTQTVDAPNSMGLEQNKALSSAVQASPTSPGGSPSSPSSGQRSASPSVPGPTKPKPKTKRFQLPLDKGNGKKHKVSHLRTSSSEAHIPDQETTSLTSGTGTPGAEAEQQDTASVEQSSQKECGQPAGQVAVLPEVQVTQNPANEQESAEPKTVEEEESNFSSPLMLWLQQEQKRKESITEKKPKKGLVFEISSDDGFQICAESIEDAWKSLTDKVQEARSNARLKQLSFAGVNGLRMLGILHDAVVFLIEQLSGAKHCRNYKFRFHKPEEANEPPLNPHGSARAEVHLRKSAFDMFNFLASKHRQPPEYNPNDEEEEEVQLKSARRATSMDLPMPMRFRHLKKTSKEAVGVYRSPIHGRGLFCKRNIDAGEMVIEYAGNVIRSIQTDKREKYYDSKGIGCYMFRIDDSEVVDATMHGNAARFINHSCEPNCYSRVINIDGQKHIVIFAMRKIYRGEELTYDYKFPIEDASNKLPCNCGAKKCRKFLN

`CN(C)C(=O)C(CCN1CCC(O)(c2ccc(Cl)cc2)CC1)(c1ccccc1)c1ccccc1` [LOPERAMIDE] had an IC50 in assay [1] of 69 µM.
In assay [2], `Cc1c(CN2CCC(Nc3ncnc4sc(CC(F)(F)F)cc34)CC2)ccc2c1cc(C#N)n2Cc1cn[nH]c1` gave an IC50 of 0.0147 µM. The compound further registered a Kd in assay [3] of 0.0093 µM.
Consider `CCC(CC)(NC(=O)C(C)C)C(=O)N[C@@H](CCCNC(=N)N)C(=O)NC1(C(=O)NC(c2ccc(Cl)cc2)c2ccc(Cl)cc2)CCCC1`, for which, in assay [4], the IC50 was determined as 0.0045 µM and the Ki was less than 0.001 µM.
`O=c1cccc2n1[C@@H]1C[C@H](C2)CN(CC(O)CCCc2ccccc2)C1` (stereo partly drawn): the midpoint of inhibition in assay [5], the IC50, lay at 0.001 µM.
In assay [1], `NCC(CCN1CC=C(c2ccc(Cl)cc2)CC1)(c1ccccc1)C1CCCC1` (stereo not drawn) came in with an IC50 of 0.83 µM and a Ki of 0.08 µM.

As a reminder, the IC50 is the point on the concentration scale where inhibition reaches its midpoint. As a reminder, the Kd is the equilibrium constant for the complex coming apart. The low end stands for tighter binding, the high end for weaker binding. The Ki is a dissociation constant, usually derived from enzyme kinetics or from competition with a known ligand. A low value points to higher affinity.
